Measured values: patent US20260102359A1, “COMBINATION TREATMENT OF DERMAL AND TRANSDERMAL FIBROTIC DISEASES, DISORDERS AND ASSOCIATED PAIN AND INFLAMMATION” (ERESINA, LLC, priority 2022, published 2026)
Where a name gives a salt, the structure may show the parent alone. Where a SMILES comes first, the peptide text is derived from it. Bridges are numbered along the chain shown (N, C = ends). [ ]: non-standard residue; d: D form. hArg = N=C(N)NCCCC[C@H](N)C(=O)O; Mpa = O=C(O)CCS

These molecules were tested on hDMFa myofibroblast cells.

| SMILES | Compound Myofibroblast Cytotoxicity Activity |
| --- | --- |
| COc1cccc2c1C(=O)c1c(O)c3c(c(O)c1C2=O)C[C@@](O)(C(C)=O)C[C@@H]3O[C@H]1C[C@H](N)[C@H](O)[C@H](C)O1 [Cmpd 329, Daunorubicin HCl] | +++ |
| CCCCCCCCCC(=O)O [Cmpd 331, Decanoic acid] | + |
| C=C1CC[C@@H]2[C@](C)(CO)[C@H](O)CC[C@@]2(C)[C@@H]1/C=C/C1=CCOC1=O [Cmpd 334, Dehydroandrographolide] | ++ |
| C=C1CC[C@H]2C(=C)CC[C@H]3C(=C)C(=O)O[C@@H]3[C@@H]12 [Cmpd 336, Dehydrocostus Lactone] | +++++ |
| O=C1O[C@H](CO)[C@@H](O)[C@H](O)[C@H]1O [Cmpd 338, delta-Gluconolactone] | ++ |
| C[C@H](CCC(=O)O)[C@H]1CC[C@H]2[C@@H]3CC[C@@H]4C[C@H](O)CC[C@]4(C)[C@H]3C[C@H](O)[C@]12C [Cmpd 339, Deoxycholic acid sodium salt] | +++++ |
| Cc1cc(N)c2ccccc2[n+]1CCCCCCCCCC[n+]1c(C)cc(N)c2ccccc21 [Cmpd 340, Dequalinium Chloride] | ++ |
| CCCCCCCCCCCCC/C=C/[C@@H](O)[C@@H](N)CO [Cmpd 341, D-erythro-Sphingosine (synthetic)] | ++ |
| CNCCCN1c2ccccc2CCc2ccccc21.Cl [Cmpd 342, Desipramine hydrochloride] | ++++ |
| C#C[C@]1(O)CC[C@H]2[C@@H]3CCC4=CCCC[C@@H]4[C@H]3C(=C)C[C@@]21CC [Cmpd 344, Desogestrel] | +++ |
| Cc1c(OCC(F)(F)F)ccnc1C[S@@+]([O-])c1nc2ccccc2[nH]1 [Cmpd 345, Dexlansoprazole] | ++ |
| NC(=O)CC[C@@H](N)C(=O)O [Cmpd 346, D-Glutamine] | ++ |
| CC(=O)Nc1c(I)c(NC(C)=O)c(I)c(C(=O)O)c1I [Cmpd 348, Diatrizoic acid] | ++ |
| COc1ccc(Cc2cnc(N)nc2N)cc1OC [Cmpd 349, Diaveridine] | ++ |
| Oc1ccc(Cl)cc1Cc1cc(Cl)ccc1O [Cmpd 353, Dichlorophen] | +++++ |
| N#CC(c1ccc(Cl)cc1)c1c(Cl)cc(-n2ncc(=O)[nH]c2=O)cc1Cl (centres unmarked) [Cmpd 354, Diclazuril] | +++ |
| O=C(O)Cc1ccccc1Nc1c(Cl)cccc1Cl [Cmpd 355, Diclofenac] | ++ |
| CC/C(=C(/CC)c1ccc(O)cc1)c1ccc(O)cc1 [Cmpd 358, Diethylstilbestrol] | +++ |
| O=C(O)c1cc(-c2ccc(F)cc2F)ccc1O [Cmpd 359, Diflunisal] | ++ |
| OC(CCCN1CCCCC1)(c1ccccc1)c1ccccc1 [Cmpd 365, Diphenidol HCl] | ++++ |

| SMILES | Compound Myofibroblast Cytotoxicity Activity |
| --- | --- |
| CC(C)N(CCC(C(N)=O)(c1ccccc1)c1ccccn1)C(C)C (centres unmarked) [Cmpd 366, Disopyramide] | ++ |
| CC/C=C\C/C=C\C/C=C\C/C=C\C/C=C\C/C=C\CCC(=O)O [Cmpd 375, Docosahexaenoic Acid] | +++ |
| O=C(O[C@@H]1C[C@@H]2C[C@H]3C[C@H](C1)N2CC3=O)c1c[nH]c2ccccc12 [Cmpd 376, Dolasetron] | ++ |
| O=c1[nH]c2ccccc2n1CCCN1CCC(n2c(=O)[nH]c3cc(Cl)ccc32)CC1 [Cmpd 378, Domperidone] | ++ |
| CC(O)C(=O)O.CC(O)C(=O)O.CN1CCN(c2ccc3nc(-c4c(N)c5c(F)cccc5[nH]c4=O)[nH]c3c2)CC1 [Cmpd 383, Dovitinib Dilactic acid] | +++ |
| COc1cc2nc(N3CCN(C(=O)C4COc5ccccc5O4)CC3)nc(N)c2cc1OC (centres unmarked) [Cmpd 384, Doxazosin Mesylate] | +++ |
| CN(C)CCC=C1c2ccccc2COc2ccccc21 [Cmpd 385, Doxepin (hydrochloride)] | ++ |
| C=C1/C(=C\C=C2/CCC[C@]3(C)[C@@H]([C@H](C)/C=C/[C@H](C)C(C)C)CC[C@@H]23)C[C@@H](O)C[C@@H]1O [Cmpd 386, Doxercalciferol] | +++ |
| C[C@H]1O[C@@H](n2cc(F)c(=O)[nH]c2=O)[C@H](O)[C@@H]1O [Cmpd 387, Doxifluridine] | ++++ |
| C[C@H]1c2cccc(O)c2C(=O)C2=C(O)[C@]3(O)C(=O)C(C(N)=O)=C(O)[C@@H](N(C)C)[C@@H]3[C@@H](O)[C@@H]21 [Cmpd 388, Doxycycline HCl] | ++ |
| CC(C)(CO)[C@H](O)C(=O)NCCCO [Cmpd 390, D-Panthenol] | ++ |
| CC(C)(CO)[C@@H](O)C(=O)NCCC(=O)[O-].[Na+] [Cmpd 391, D-Pantothenate sodium] | ++ |
| CNCC[C@H](Oc1cccc2ccccc12)c1cccs1 [Cmpd 397, Duloxetine HCl] | +++++ |
| CCCCOc1ccc(C(=O)CCN2CCCCC2)cc1 [Cmpd 398, Dyclonine HCl] | +++ |
| Clc1ccc(COC(Cn2ccnc2)c2ccc(Cl)cc2Cl)cc1 (centres unmarked) [Cmpd 403, Econazole nitrate] | +++ |
| O=C([O-])CN(CCN(CC(=O)[O-])CC(=O)[O-])CC(=O)[O-].[Ca+2].[Na+].[Na+] [Cmpd 404, edetate calcium disodium] | ++ |
| CC[N+](C)(C)c1cccc(O)c1.[Cl-] [Cmpd 406, Edrophonium (chloride)] | +++ |
| CC/C=C\C/C=C\C/C=C\C/C=C\C/C=C\CCCC(=O)O [Cmpd 408, Eicosapentaenoic Acid] | +++ |
| CC1=NN(c2ccc(C)c(C)c2)C(=O)/C1=N\Nc1cccc(-c2cccc(C(=O)O)c2)c1O [Cmpd 410, Eltrombopag] | ++ |
| CN1CCC(COc2cnc(-c3cccc(Cn4nc(-c5cccc(C#N)c5)ccc4=O)c3)nc2)CC1 [Cmpd 413, EMD-1214063] | ++++ |

| SMILES | Compound Myofibroblast Cytotoxicity Activity |
| --- | --- |
| Cc1cc(O)c2c(c1)C(=O)c1cc(O)cc(O)c1C2=O [Cmpd 415, Emodin (6-Methyl-1,3,8-trihydroxyanthraquinone)] | ++ |
| CCn1cc(C(=O)O)c(=O)c2cc(F)c(N3CCNCC3)nc21 [Cmpd 416, Enoxacin Sesquihydrate] | ++ |
| C=C1[C@H](CO)[C@@H](O)C[C@@H]1n1cnc2c(=O)[nH]c(N)nc21 [Cmpd 418, Entecavir Hydrate] | +++ |
| CN1CCN(c2ccc(C(=O)Nc3n[nH]c4ccc(Cc5cc(F)cc(F)c5)cc34)c(NC3CCOCC3)c2)CC1 [Cmpd 419, Entrectinib] | +++ |
| Cn1cc(C2=C(c3cn(C4CCN(Cc5ccccn5)CC4)c4ccccc34)C(=O)NC2=O)c2ccccc21 [Cmpd 420, Enzastaurin (LY317615)] | ++++ |
| O=S(=O)([O-])CCCS(=O)(=O)[O-].[Na+].[Na+] [Cmpd 423, Eprodisate disodium] | ++ |
| N=C(N)NCCCC[C@@H]1NC(=O)CCSSC[C@@H](C(N)=O)NC(=O)[C@@H]2CCCN2C(=O)[C@H](Cc2c[nH]c3ccccc23)NC(=O)[C@H](CC(=O)O)NC(=O)CNC1=O [Cmpd 424, Eptifibatide Acetate] ([Mpa][hArg]GDWPC-NH2; disulfide 1-7) | ++ |
| COc1ccc2[n-]c([S+]([O-])Cc3ncc(C)c(OC)c3C)nc2c1.COc1ccc2[n-]c([S+]([O-])Cc3ncc(C)c(OC)c3C)nc2c1.[Mg+2] (centres unmarked) [Cmpd 427, Esomeprazole Magnesium] | ++ |
| COc1ccc2[n-]c([S@@+]([O-])Cc3ncc(C)c(OC)c3C)nc2c1.COc1ccc2[n-]c([S@@+]([O-])Cc3ncc(C)c(OC)c3C)nc2c1.O.O.O.[Mg+2] [Cmpd 428, Esomeprazole Magnesium trihydrate] | ++ |
| C[C@]12CC[C@@H]3c4ccc(O)cc4CC[C@H]3[C@@H]1CC[C@@H]2OC(=O)CCC1CCCC1 [Cmpd 430, Estradiol Cypionate] | +++ |
| CCCCC(=O)O[C@H]1CC[C@H]2[C@@H]3CCc4cc(O)ccc4[C@H]3CC[C@]12C [Cmpd 431, Estradiol valerate] | +++ |
| C[C@]12CC[C@@H]3c4ccc(OS(=O)(=O)O)cc4CC[C@H]3[C@@H]1CCC2=O [Cmpd 432, Estropipate] | +++ |
| C=C(CC)C(=O)c1ccc(OCC(=O)O)c(Cl)c1Cl [Cmpd 434, Ethacrynic Acid] | +++ |
| CCC1(C)CC(=O)NC1=O (centres unmarked) [Cmpd 436, Ethosuximide] | ++ |
| CCOC(=O)C=Cc1ccccc1 [Cmpd 437, Ethyl Cinnamate] | ++ |
| C#C[C@]1(OC(C)=O)CC[C@H]2[C@@H]3CCC4=C[C@@H](OC(C)=O)CC[C@@H]4[C@H]3CC[C@@]21C [Cmpd 439, Ethynodiol diacetate] | ++ |
| CCOC(=O)/C=C(C)/C=C/C=C(C)/C=C/c1c(C)cc(OC)c(C)c1C [Cmpd 442, Etretinate] | +++ |
| Cc1cc(-c2ccc(/N=N/c3ccc4c(S(=O)(=O)[O-])cc(S(=O)(=O)[O-])c(N)c4c3O)c(C)c2)ccc1/N=N/c1ccc2c(S(=O)(=O)[O-])cc(S(=O)(=O)[O-])c(N)c2c1O.[Na+].[Na+].[Na+].[Na+] [Cmpd 445, Evans Blue tetrasodium salt] | ++ |
| CO[C@H]1C[C@@H]2CC[C@@H](C)[C@@](O)(O2)C(=O)C(=O)N2CCCC[C@H]2C(=O)O[C@H]([C@H](C)C[C@@H]2CC[C@@H](OCCO)[C@H](OC)C2)CC(=O)[C@H](C)/C=C(\C)[C@@H](O)[C@@H](OC)C(=O)[C@H](C)C[C@H](C)/C=C/C=C/C=C/1C [Cmpd 446, Everolimus (RAD001)] | +++++ |
